This data set can be described thus: wn = mass fraction of the nth substance listed. The following applies: 100 kPa, Liquid, Pycnometric method.

± gives the expanded uncertainty stated by the source.

A word on the mass density: it is the mass of a sample divided by its volume. As for `O=C1OC(=O)c2ccccc21` [isobenzofuran-1,3-dione] + C1COCCO1, the mass density reads like this: (283.15 K, w1 = 0.0851) 1052.7 ± 14 kg/m3; (293.15 K, w1 = 0.1354) 1059.7 ± 14 kg/m3; (303.15 K, w1 = 0.21) 1061.9 ± 14 kg/m3.

For `CC1=CC(=O)c2ccccc2C1=O` [2-methyl-1,4-naphthalenedione] + C1COCCO1, the mass density by setting is: (283.15 K, w1 = 0.1527) 1052.8 ± 14 kg/m3; (293.15 K, w1 = 0.2052) 1056.2 ± 14 kg/m3; (303.15 K, w1 = 0.2653) 1057.1 ± 14 kg/m3.

The record behind these values is the NIST ThermoML archive (doi:10.1021/acs.jced.7b00609).
